“Also recorded” adds a separate entry of the source. Blank lines part the entries; values can stand above or below the molecule they belong to. Numbered stars: 1 amine (or outer) side, 2 acyl side, 3 side chain; on linkers, the order of the positions; unused ones are H or OH. Bridge positions count the residues as written; N and C are the ends. Square brackets hold non-standard residues; d marks the D form. Peptide text beside a SMILES is read from it. X1 = O=C(c1cc(/C(=N/O)[*:2])cc(/C(=N/O)[*:3])c1)[*:1]; d(aIle) = CC[C@H](C)[C@@H](N)C(=O)O
How the values were obtained:
[1] = Hydrolysis of OSu ester in aqueous acetone/PBS, monitored by 1H NMR; format: physicochemical
From the text: FIG. 15. Hydrolysis of OSu ester (S18) in 80% acetone/PBS (pH 7.4) monitored by ^1H NMR.
FIG. 16. Hydrolysis of OSu ester (S18) in 50% acetone/PBS (pH 7.4) monitored by ^1H NMR.

[2] = Stability of bicyclic peptide in PBS at varied pH, monitored by LC-MS; format: physicochemical; settings: 200 μM in PBS, pH 5.1, pH 7.4 and pH 9.2, over 16 days
Description: FIGS. 37a-37c. FIG. 37a. LC-MS (280 nm) trace of the bicyclic peptide 5h in PBS pH 5.1 over 16 days. FIG. 37b. LC-MS (280 nm) trace of the bicyclic peptide 5h in PBS pH 7.4 over 16 days. FIG. 37c. LC-MS (280 nm) trace of the bicyclic peptide 5h in PBS pH 9.21 over 16 days.
The bicyclic peptide 5h was prepared according to above mentioned procedure and purified by RP-HPLC. The solution of bicyclic peptide 5h (200 μM) in PBS was incubated at pH 5.1, pH 7.4, and pH 9.2, respectively. The sample was analyzed by LC-MS at different time points over 16 days (Method C).

[3] = Stability of bicyclic peptide in DMSO-d6/PBS/D2O, monitored by 1H NMR; format: physicochemical; settings: 0.96 mM in DMSO-d6/PBS (pH 5.9)/D2O (1/8/1), 1 week
Description: FIG. 38. Stability studies of 5h (0.96 mM) in DMSO-d6/PBS (pH 5.9)/D2O (1/8/1) monitored by ^1H NMR.

[4] = biological target: SARS-CoV-2 Spike RBD (SARS-CoV-2), P0DTC2; test: ELISA: plate coated with 100 nM SARS-CoV-2 Spike RBD, biotinylated bicyclic peptide titrated, streptavidin-HRP/TMB, A450; curve fitting

Molecule: O=C(ON1C(=O)CCC1=O)c1ccc(/C=N/O)cc1 [S18]
Percentage of S20 (%) ([1]; acetone-d6/PBS/D2O (5/4/1), 20 min): 12%
Percentage of S20 (%) ([1]; acetone-d6/PBS/D2O (5/4/1), 1 h): 26%
Percentage of S20 (%) ([1]; acetone-d6/PBS/D2O (5/4/1), 2 h): 33%
Percentage of S20 (%) ([1]; acetone-d6/PBS/D2O (8/1/1), 20 min): trace
Percentage of S20 (%) ([1]; acetone-d6/PBS/D2O (8/1/1), 1 h): trace
Percentage of S20 (%) ([1]; acetone-d6/PBS/D2O (8/1/1), 20 h): 4%

Molecule: CC[C@H](C)[C@H]1NC(=O)[C@H](CC(C)C)NC(=O)[C@H](C)NC(=O)c2cc3cc(c2)/C(=N/O)SC[C@H](NC(=O)CNC1=O)C(=O)N1CCC[C@H]1C(=O)N[C@@H](Cc1ccccc1)C(=O)N1CCC[C@H]1C(=O)N[C@@H](C)C(=O)N[C@@H](CCCNC(=N)N)C(=O)N[C@@H](Cc1c[nH]c2ccccc12)C(=O)N[C@H](C(N)=O)CS/C3=N\O [5h] (AL[d(aIle)]GCPFPARWC-NH2; linker N-5-12 via X1)
Chemical stability in PBS (LC-MS profile) [2]: remained intact; also recorded: no change of the LC-MS profile
Chemical stability (1H NMR profile) [3]: no change of NMR profile

The next lines start with the values.

Kd [4]: 400 nM
Molecule: AISECNHIAEWMC (modifications not checked) [bicyclized NP10 (…)]

Kd [4]: 3000 nM
Molecule: AIDSCRYNHGWQC (modifications not checked) [bicyclized NP8 (…)]

— patent US20260132547A1, “NOVEL PHAGE LIBRARIES OF BICYCLIC PEPTIDES” (priority 2024, published 2026)
